Experimental data reported in patent US8877932B2, “Anhydrous lenalidomide form-I” (Natco Pharma Limited, priority 2010, dated 2014).
In brackets after ≈: the same amount, converted by molar mass. Where two headings read alike, the source gives them in different places. Values belong to the compound of their own block, whether it stands above or below them.

What was measured:
[1] = Storage stability at room temperature; type: physicochemical; conditions: more than a year at room temperature (25-35° C.)
Procedure: The thus obtained anhydrous novel form is very stable at room temperature (25-35° C.) and is not absorbing water or converting to any reported hydrated forms.

[2] = Intrinsic dissolution (Woods apparatus); type: physicochemical; conditions: HCl buffer, pH 1.8, 1% sodium lauryl sulfate, 37° C., 50 rpm
Procedure: Dissolution experiments were carried out in a ELECTROLAB-8 dissolution apparatus equipped with a ETC-112 temperature controller. An intrinsic dissolution apparatus (Woods apparatus) was used. Samples were compressed at 2.0 metric tons for 1 min in KBr hydraulic press, giving a sample surface of 0.50 cm^2. A dissolution medium consisting of 900 mL HCl buffer, pH 1.8, with 1% sodium lauryl sulfate, was used for each experiment. The medium was degassed by vacuum filtration through a 0.45-μm nylon filter disk and maintained at 37° C. The apparatus was rotated at 50 rpm for each experiment. Aliquots were filtered immediately using 0.45-μm nylon syringe filters. In some cases, the undissolved solids were recovered and analyzed by X-ray powder diffraction (XRPD).
(§1) Both the solubility and dissolution experiments were conducted in a medium of HCl buffer, pH 1.8, containing 1% sodium lauryl sulfate. The solubilities were estimated to be 3.15 mg/ml for Form 1 & 3.28 mg/ml for Form B, respectively.

[3] = Encapsulated Form I compared with […] capsules (XRPD, moisture content); type: physicochemical
From the text: The sample of lenalidomide Form I API is encapsulated & compared with the […] capsules.

[4] = Accelerated stability studies; type: physicochemical
Procedure: The lenalidomide Form I sample are subjected to accelerated stability studies under following conditions & analyzed at initial after 1, 2, 3 and 6 months. • Condition 1—temperature: 40° C.±2° C. • Relative humidity: 75% RH±5% • Condition 1—temperature: 30° C.±2° C. • Relative humidity: 65% RH±5%
We have not observed major deviation in quality of samples analysed of initial samples after 1,2, 3 and 6 months.
No increase in impurity profile is observed in 1,2, 3 and 6 months sample.

Equilibrium solubility = type: physicochemical; conditions: pH 1.8, 1% sodium lauryl sulfate
Procedure: A solid sample of 450 mg was stirred in 50 mL of dissolution medium (HCl buffer, pH 1.8, with 1% sodium lauryl sulfate) using a mechanical stir rod. Aliquots were filtered and centrifuged at 3500 rpm using 0.2-μm nylon syringe filters and immediately diluted 1 mL→50 mL, then 5 mL→425 mL with dissolution medium. In some cases, the undissolved solids were recovered and sent for X-ray powder diffraction (XPRD) studies.
as §1

Humidity test = type: physicochemical
Procedure: The anhydrous form of lenalidomide along with two batches (0812/006 & 0812/007 &) were subjected for humidity test.
NaBr, NH4Cl, KOH, Na2HPO4 were used as Saturated solution at temperature 25.1° C., 25° C., 24.7° C., 26.8° C. and humidity 84%, 79%, 23%, 93% respectively at initial water content of 0.08%.

[5] = Thermal stability of Lenalidomide Form I; type: physicochemical; conditions: heating at 95 to 105° C. for 7 days
Procedure: The lenalidomide Form I obtained after drying temperature 65 to 75° C. under vacuum is taken subjected to heating at 95 to 105° C. in oil bath, kept in rotator vapor for 7 days, cool to room temperature and the sample is analyzed per IR, NMR, XRPD (X-ray powder diffractometry), DSC (differential scanning calorimetry) & TGA (thermogravimetry). […] The moisture content is also determined for sample and found to be less than 1%.

Bulk density = type: physicochemical
From the text: Batch No—0812/006 • Untapped Density—0.286 g/ml • Tapped density—0.481 g/ml • III. Batch No—0812/006 • Untapped Density—0.286 g/ml • Tapped density—0.481 g/ml

[6] = Moisture content of prepared Form-I samples; type: physicochemical; conditions: samples as prepared
[7] = reported in US 2005/0096351 A1; cited from earlier work
[8] = 40° C./75% RH and 30° C./65% RH, 1, 2, 3 and 6 months

conversion to hydrated form on storage [1]: not converted into any hydrated from
dissolution rate [2]: 0.421 mg/min/cm^2
polymorphic form after encapsulation (XRPD) [3]: not changed even after encapsulation
impurity profile [4, 8]: No increase
moisture content after accelerated stability storage [4, 8]: 0.21 % w/w
moisture content, initial ([4]; before accelerated stability storage): 0.09 % w/w
solubility (Equilibrium solubility; HCl buffer with 1% sodium lauryl sulfate, 25 °C, pH 1.8, aqueous with cosolvent or surfactant or cyclodextrin, thermodynamic from solid, read-out: solubility): 3150 µg/mL (≈ 12.1 mM)
water content after humidity test (Humidity test; KOH saturated solution, 24.7° C., humidity 23%): 0.12 % w/w
water content after humidity test (Humidity test; NH4Cl saturated solution, 25° C., humidity 79%): 0.13 % w/w
water content after humidity test (Humidity test; Na2HPO4 saturated solution, 26.8° C., humidity 93%): 0.10 % w/w
water content after humidity test (Humidity test; NaBr saturated solution, 25.1° C., humidity 84%): 0.21 % w/w
initial water content (Humidity test; before humidity test): 0.08%
change in impurity profile [5]: No further change
change in spectral data (IR, NMR, XRPD, DSC, TGA) [5]: No change is observed
moisture content after heating [5]: less than 1%
Tapped density (Bulk density; listed as 0812/005): 0.465 g/mL
Untapped Density (Bulk density; listed as 0812/005): 0.278 g/mL
Tapped density (Bulk density; listed as 0812/006): 0.481 g/mL
Untapped Density (Bulk density; listed as 0812/006): 0.286 g/mL
moisture content [6]: less than 0.1%
Structure (SMILES): Nc1cccc2c1CN(C1CCC(=O)NC1=O)C2=O (centres unmarked) [Form-I, 3-(4-amino-1-oxo-1,3-dihydro-isoindole-2-yl)-piperidine-2,6-dione]
conversion to hydrated polymorphic form ([4]; 40° C./75% RH and 30° C./65% RH, up to 6 months): not converted in any of the hydrated polymorphic form

Structure (SMILES): Nc1cccc2c1CN(C1CCC(=O)NC1=O)C2=O (centres unmarked) [Form-E, 3-(4-amino-1-oxo-1,3-dihydro-isoindole-2-yl)-piperidine-2,6-dione]
moisture content [7]: 11.9%

dissolution rate [2]: 0.250 mg/min/cm^2
solubility (Equilibrium solubility; HCl buffer, 25° C.): 3280 µg/mL (≈ 12.7 mM)
Structure (SMILES): Nc1cccc2c1CN(C1CCC(=O)NC1=O)C2=O (centres unmarked) [Form-B, 3-(4-amino-1-oxo-1,3-dihydro-isoindole-2-yl)-piperidine-2,6-dione, reference compound]
moisture content [7]: 3.1%

Structure (SMILES): Nc1cccc2c1CN(C1CCC(=O)NC1=O)C2=O (centres unmarked) [Form A, 3-(4-amino-1-oxo-1,3-dihydro-isoindol-2-yl)-piperidine-2,6-Dione]
hygroscopicity [7]: not hygroscopic
